# Experimental data taken from article PMC13441969, “Zero-shot design of drug-binding proteins via neural iterative selection−expansion” (Nature, 2026).
# Entries after “also recorded” stand apart in the source; their conditions may differ. Structures can show the parent of a compound that is named as a salt.
# Columns and labels:
# [1] = design: method as in PMID 35318309, PMID 31620223; conditions: read-out: cellular half-maximum inhibitory concentration (IC50); cited from earlier work
# [2] = Exatecan lactone hydrolysis by time-resolved absorbance; type: physicochemical; conditions: room temperature, pH 7.4; 3 half-lives
# [3] = design: method as in PMID 11595695; conditions: cited from earlier work
# [4] = test system: EPIC; test: Fluorescence anisotropy of fluorescent ligands binding to EPIC; conditions: for Kd / binding of ligand to EPIC (words): [ligand] = 50 nM; for Kd: 1:1 binding model; for binding of ligand to EPIC (words): dexamethasone and apixaban as FITC conjugates
# Procedure: including the ProteinMPNN-designed sequences along with the Ala/Gly versions, are available […]
# Fluorescence Polarization Experiments to Determine Binding Affinities
# We performed fluorescence anisotropy experiments in a 384 -well plate -reader format to determine the binding affinities of protein s with various ligands (Supp. Fig. 15 and Supp. Table 6). We serially diluted an initial solution containing a high concentration of protein while keeping a constant concentration of ligand (50 nM) in each well. The buffer for these assays was composed of 1x PBS, pH 7.4, and 0.1% w/v PEG-8000. Camptothecin-class molecules (exatecan, camptothecin, belotecan, FL118, irinotecan) were excited at a wavelength of 360 nm using a BMG LabTech PHERAstar FSX plate reader or a BMG LabTech CLARIOstar Plus plate reader. We detected the resulting parallel and perpendicularly polarized emission at 440 nm. […]
# excited using 482 nm filter (16 nm bandwidth) using a BMG LabTech CLARIOstar Plus plate reader, and parallel and perpendicularly polarized emissions were detected through a 530 nm filter (40 nm bandwidth). Data was fit using the quadratic form of a single-site binding model.
# Gain settings for each molecule were calculated by auto-adjusting the focus on a well containing free ligand and buffer, setting the millipolarization (mP) of free ligand to mP = 35.
# Fits to Fluorescence Anisotropy Data
# Data from fluorescence anisotropy (r) experiments, which varied total protein concentration, [P]T for a fixed total ligand concentration, [L]T, was fit to a single-site binding […]
# model (Equations 1 and 2, N = 1). […] For
# EPIC and its mutants, confidence intervals of the fit parameters were determined from bootstrapping the residuals of the optimum fit (random residual selection with replacement) to create 1000 synthetic datasets, which were each separately fit to Equations 1 and 2. Parameter means and 95% confidence intervals were determined from the distribution of the parameters computed from the bootstrapped fits.
# We performed separate protein titrations across three fixed exatecan concentration s (25 , 12.5 , and 5 nM) and measured fluorescence anisotropy of exatecan as a function of protein concentration . For each EPIC mutant, the dissociation constant (Kd) and anisotropy baseline (A min) were shared parameters across the three exatecan concentrations. Anisotropy maxima (Amax) and ligand concentration ([L]T) were fit locally. We fit the ligand concentrations locally (to within 15% of the target concentration) to account for experimental discrepancies. Code for performing the fitting is provided in Zenodo16. […]
Structure (SMILES),Kd [4],binding of ligand to EPIC (words) [4],ΔΔG (change in binding free energy) relative to the exatecan–EPIC complex [4],further results
"CC[C@@]1(O)C(=O)OCc2c1cc1n(c2=O)Cc2c-1nc1cc(F)c(C)c3c1c2[C@@H](N)CC3 [exatecan, Exatecan mesylate]",0.12 µM,–,–,IC50 [1]: ~0.001 µM; time for nearly complete conversion from C to O form [2]: ≤ 6 h; half-life of hydrolysis of free drug in plasma ([3]; plasma): around 2 h; steady-state level of lactone form in human plasma ([3]; within 10 h): 15%; fold tighter binding of EPIC to exatecan than to any other ligand tested [4]: at least 50 fold
C[C@@H]1C[C@H]2[C@@H]3CCC4=CC(=O)C=C[C@]4(C)[C@@]3(F)[C@@H](O)C[C@]2(C)[C@@]1(O)C(=O)CO [dexamethasone],–,no binding; also recorded: does not bind,–,binding of ligand to EPIC (words) ([4]; listed as Dexamethasone): no appreciable binding
"CC[C@@]1(O)C(=O)OCc2c1cc1n(c2=O)Cc2c-1nc1ccccc1c2CCNC(C)C [belotecan, Belotecan hydrochloride]",19 µM,–,3.0 kcal/mol,–
CC[C@@]1(O)C(=O)OCc2c1cc1n(c2=O)Cc2cc3cc4c(cc3nc2-1)OCO4 [FL118],6 µM,–,2.3 kcal/mol,–
"CC[C@@]1(O)C(=O)OCc2c1cc1n(c2=O)Cc2cc3ccccc3nc2-1 [camptothecin, Camptothecin]",90 µM,–,3.9 kcal/mol,–
"COc1ccc(-n2nc(C(N)=O)c3c2C(=O)N(c2ccc(N4CCCCC4=O)cc2)CC3)cc1 [apixaban, Apixaban]",–,no appreciable binding; also recorded: does not bind,–,–
COc1ccc(-n2nc(C(=O)NCCOCCOCCNC(=S)Nc3ccc(-c4c5ccc(=O)cc-5oc5cc(O)ccc45)c(C(=O)O)c3)c3c2C(=O)N(c2ccc(N4CCCCC4=O)cc2)CC3)cc1 [apixaban-peg-FITC],–,did not show any experimentally detectable binding,–,–
CCc1c2c(nc3ccc(OC(=O)N4CCC(N5CCCCC5)CC4)cc13)-c1cc3c(c(=O)n1C2)COC(=O)[C@]3(O)CC [irinotecan],–,not to bind; also recorded: no appreciable binding,–,binding of ligand to EPIC (words) ([4]; listed as Irinotecan): negligible binding
